Data reported in the NIST ThermoML archive (doi:10.1021/acs.jced.9b00704).

Conditions: Liquid, Light diffraction method

CCCCCC(=O)OC [methyl hexanoate]
Conditions | speed of sound [m/s]
297.83 K, 110 kPa | 1225.1
298.17 K, 10000 kPa | 1274.4
298.35 K, 7010 kPa | 1261.9
298.56 K, 5000 kPa | 1252.4
298.76 K, 1010 kPa | 1231.7
298.85 K, 3000 kPa | 1240.3
306.48 K, 110 kPa | 1182.9
308.58 K, 10010 kPa | 1227.8
308.59 K, 1010 kPa | 1186.9
308.9 K, 7000 kPa | 1221.1
309.13 K, 5010 kPa | 1210.5
309.19 K, 3010 kPa | 1197.6
317.52 K, 10010 kPa | 1181
317.6 K, 7010 kPa | 1175.8
317.92 K, 100 kPa | 1137
318.3 K, 1000 kPa | 1142.6
318.41 K, 5010 kPa | 1160.9
319.17 K, 3010 kPa | 1152.2
327.21 K, 110 kPa | 1090.2
327.38 K, 7010 kPa | 1130.2
327.4 K, 10010 kPa | 1143.2
327.58 K, 1010 kPa | 1097.9
327.64 K, 5010 kPa | 1120.6
327.9 K, 3000 kPa | 1107.9
336.91 K, 100 kPa | 1055.2
337.21 K, 5000 kPa | 1091.3
337.21 K, 7010 kPa | 1102.7
337.71 K, 10010 kPa | 1111.9
337.95 K, 1000 kPa | 1065.3
337.97 K, 3000 kPa | 1078
346.56 K, 1010 kPa | 1029.7
346.9 K, 100 kPa | 1021.1
346.92 K, 10020 kPa | 1081.3
347.43 K, 7000 kPa | 1067.3
347.71 K, 3010 kPa | 1040.3
347.75 K, 5010 kPa | 1054.8
356.24 K, 3010 kPa | 1011.9
356.68 K, 10010 kPa | 1048.7
357.28 K, 100 kPa | 970.4
357.33 K, 7010 kPa | 1033.1
357.35 K, 5000 kPa | 1022.1
357.85 K, 1010 kPa | 989.8
366.38 K, 3010 kPa | 970.6
366.68 K, 5000 kPa | 980.4
366.89 K, 10000 kPa | 1005.5
367.18 K, 7000 kPa | 989.6
367.24 K, 1010 kPa | 947.2
367.48 K, 100 kPa | 938.2
377.25 K, 3000 kPa | 927.9
377.7 K, 10000 kPa | 974.3
377.72 K, 5000 kPa | 939.5
377.88 K, 110 kPa | 903.5
377.91 K, 1010 kPa | 910.8
377.97 K, 7000 kPa | 961
386.63 K, 3000 kPa | 894.6
386.85 K, 10000 kPa | 945.8
387.01 K, 1010 kPa | 874.2
387.07 K, 7000 kPa | 922
387.29 K, 5000 kPa | 908.4
387.73 K, 100 kPa | 866.5
396.7 K, 3000 kPa | 862
397.25 K, 10010 kPa | 909.9
397.54 K, 7020 kPa | 891.4
397.64 K, 1010 kPa | 842.1
397.83 K, 5000 kPa | 875.5
398.6 K, 90 kPa | 827.8
406.65 K, 1010 kPa | 810.8
406.78 K, 3010 kPa | 828.8
406.79 K, 7020 kPa | 857.7
406.89 K, 10000 kPa | 885.7
406.99 K, 5010 kPa | 841.7
407.93 K, 100 kPa | 799
416.99 K, 7010 kPa | 835.1
417.08 K, 1010 kPa | 775.9
417.12 K, 3000 kPa | 796.9
417.21 K, 5010 kPa | 808.2
417.21 K, 10020 kPa | 864.4
417.52 K, 110 kPa | 764.3
427.06 K, 1000 kPa | 746
427.25 K, 3000 kPa | 770.6
427.25 K, 5000 kPa | 786.5
427.33 K, 7000 kPa | 805.5
427.38 K, 10010 kPa | 833.5
436.99 K, 1010 kPa | 714.9
437.07 K, 5000 kPa | 751.6
437.97 K, 6990 kPa | 771.5
438.1 K, 9980 kPa | 802.1
439.3 K, 3000 kPa | 727.5
446.68 K, 3010 kPa | 706.2
447 K, 4990 kPa | 723
447.21 K, 10010 kPa | 776
447.38 K, 7000 kPa | 744.5
447.88 K, 1000 kPa | 672.6
456.61 K, 3000 kPa | 673.8
456.81 K, 9990 kPa | 747
456.84 K, 5000 kPa | 695.3
457.1 K, 7010 kPa | 715.1
457.84 K, 990 kPa | 642.8
466.22 K, 3010 kPa | 642.9
466.28 K, 5000 kPa | 663.1
466.3 K, 7000 kPa | 689.7
466.3 K, 10010 kPa | 720.4
466.46 K, 1010 kPa | 613.5
478.01 K, 1010 kPa | 570.1
478.28 K, 7000 kPa | 646.3
478.28 K, 10000 kPa | 677.8
478.34 K, 5010 kPa | 623.4
478.43 K, 3010 kPa | 596.3
487.58 K, 1000 kPa | 535.4
487.67 K, 3010 kPa | 565.4
487.67 K, 5000 kPa | 595
487.69 K, 7000 kPa | 617
487.71 K, 10000 kPa | 653.5
497.17 K, 1010 kPa | 499.6
497.36 K, 5000 kPa | 568.5
497.38 K, 7000 kPa | 591.6
497.43 K, 3010 kPa | 534.1
497.44 K, 10000 kPa | 629.4
506.49 K, 3000 kPa | 503.9
506.88 K, 1000 kPa | 464.6
506.97 K, 7010 kPa | 563.3
507.02 K, 10020 kPa | 599.2
507.11 K, 5010 kPa | 535.1
516.99 K, 1010 kPa | 426.2
517.52 K, 7010 kPa | 531.6
517.56 K, 3000 kPa | 468.7
517.6 K, 5010 kPa | 504.9
517.63 K, 10010 kPa | 571
528.29 K, 5000 kPa | 472.6
528.46 K, 7000 kPa | 504
528.65 K, 10010 kPa | 547.3
529.52 K, 3000 kPa | 426
538.04 K, 3000 kPa | 396.8
538.26 K, 5010 kPa | 439.9
538.26 K, 7000 kPa | 472.1
538.35 K, 10000 kPa | 516.1
547.56 K, 3000 kPa | 362.7
547.96 K, 5000 kPa | 406.1
548.18 K, 9980 kPa | 498.8
548.26 K, 7000 kPa | 446
557.68 K, 3000 kPa | 321.9
557.89 K, 7010 kPa | 423
558.07 K, 10000 kPa | 472.6
558.34 K, 5000 kPa | 378.3
565.69 K, 10010 kPa | 446.4
566.56 K, 3010 kPa | 285.3
567.58 K, 5000 kPa | 346.5
567.72 K, 7010 kPa | 390.1
575.39 K, 5000 kPa | 317.9
576.35 K, 7000 kPa | 365.2
576.45 K, 3010 kPa | 241
577.04 K, 10010 kPa | 420.8
586.48 K, 3000 kPa | 197.5
586.99 K, 5010 kPa | 275
587.76 K, 7000 kPa | 334.6
588.07 K, 10030 kPa | 393.2
